One may read the Km as the concentration of substrate that gives half-maximal velocity.

The target of data set [1] is asparaginase of E.coli immobilized in hydrogel prepared with albumin and PEG 10,000 (Escherichia coli, UniProt P00805). Description: Apparent Km of asparaginase immobilized in albumin-PEG 10,000 hydrogel. In kind it is biochemical. Conditions: slab thickness of 3 mm. How it is done: (§1) As another example of enzyme immobilization in hydrogels prepared with albumin and PEG 10,000 of Mr, the enzyme asparaginase of E.coli was used. […] The operational stability of the immobilized enzyme in presence of a continuous feeding in substrate extend at 37° C. over a 20 days period without significant loss of activity.

Substrate in data set [2]: NC(=O)C[C@H](N)C(=O)O
Description: Km of soluble asparaginase for asparagine. As to conditions: other: soluble form of the enzyme; pH 8.0; 37.0 °C. In kind it is biochemical, E.coli. How it is done:
as §1

`NC(=O)C[C@H](N)C(=O)O` [asparagine]: in data set [1], the “apparent Km for the substrate asparagine” value turned out to be 2.4 µM.

B1: asparaginase of E.coli, soluble form (Escherichia coli K-12) (protein)
chain: LPNITILATGGTIAGGGDSATKSNYTVGKVGVENLVNAVPQLKDIANVKGEQVVNIGSQDMNDNVWLTLAKKINTDCDKTDGFVITHGTDTMEETAYFLDLTVKCDKPVVMVGAMRPSTSMSADGPFNLYNAVVTAADKASANRGVLVVMNDTVLDGRDVTKTNTTDVATFKSVNYGPLGYIHNGKIDYQRTPARKHTSDTPFDVSKLNELPKVGIVYNYANASDLPAKALVDAGYDGIVSAGVGNGNLYKSVFDTLATAAKTGTAVVRSSRVPTGATTQDAEVDDAKYGFVASGTLNPQKARVLLQLALTQTKDPQQIQQIFNQY
As for B1, in data set [2], the Km was 2.2 µM.

Source of the values: US5733563A, “Albumin based hydrogel” (Universite du Quebec a Montreal, priority 1996, dated 1998).
